In article PMC7156458, “Synthetic biology based construction of biological activity-related library of fungal decalin-containing diterpenoid pyrones” (Nature Communications, 2020):

Biological target: Aβ42 (Homo sapiens, UniProt P05067)
Test: Th-T (thioflavin-T) assay of Aβ42 aggregation
Assay type: biochemical
Settings: for Th-T fluorescence, mean of three wells: compound at 50

Aβ42, sequence (P05067 672-713): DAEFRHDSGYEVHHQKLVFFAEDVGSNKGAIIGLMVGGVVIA

C=C1CCC2C(C)(CCC=C(C)C)C(O)CCC2(C)C1Cc1c(OC)oc(CO)c(C(=O)OC)c1=O (stereo not drawn) [Compound 13]
Th-T fluorescence, mean of three wells (reading M54 of time course): 0.4653
Th-T fluorescence, mean of three wells (reading M55 of time course): 0.4661
Th-T fluorescence, mean of three wells (reading M56 of time course): 0.4654
Th-T fluorescence, mean of three wells (reading M57 of time course): 0.4695
Th-T fluorescence, mean of three wells (reading M58 of time course): 0.4698
Th-T fluorescence, mean of three wells (reading M59 of time course): 0.4665
Th-T fluorescence, mean of three wells (reading M60 of time course): 0.4689
Th-T fluorescence, mean of three wells (reading M61 of time course): 0.471
Th-T fluorescence, mean of three wells (reading M62 of time course): 0.4707
Th-T fluorescence of Aβ42 with compound, mean of three wells (Fig. 7a source data) (concentration 10, unit not given, time-course reading M129): 1.537
Th-T fluorescence of Aβ42 with compound, mean of three wells (Fig. 7a source data) (concentration 10, unit not given, time-course reading M130): 1.546
Th-T fluorescence of Aβ42 with compound, mean of three wells (Fig. 7a source data) (concentration 10, unit not given, time-course reading M131): 1.547
Th-T fluorescence of Aβ42 with compound, mean of three wells (Fig. 7a source data) (concentration 10, unit not given, time-course reading M132): 1.542
Th-T fluorescence of Aβ42 with compound, mean of three wells (Fig. 7a source data) (concentration 10, unit not given, time-course reading M133): 1.541
Th-T fluorescence of Aβ42 with compound, mean of three wells (Fig. 7a source data) (concentration 10, unit not given, time-course reading M134): 1.54
Th-T fluorescence of Aβ42 with compound, mean of three wells (Fig. 7a source data) (concentration 10, unit not given, time-course reading M135): 1.5371
Th-T fluorescence of Aβ42 with compound, mean of three wells (Fig. 7a source data) (concentration 10, unit not given, time-course reading M136): 1.543
Th-T fluorescence of Aβ42 with compound, mean of three wells (Fig. 7a source data) (concentration 10, unit not given, time-course reading M137): 1.53
Th-T fluorescence of Aβ42 with compound, mean of three wells (Fig. 7a source data) (concentration 10, unit not given, time-course reading M138): 1.542
Th-T fluorescence of Aβ42 with compound, mean of three wells (Fig. 7a source data) (concentration 10, unit not given, time-course reading M139): 1.54
Th-T fluorescence of Aβ42 with compound, mean of three wells (Fig. 7a source data) (concentration 10, unit not given, time-course reading M140): 1.544
Th-T fluorescence of Aβ42 with compound, mean of three wells (Fig. 7a source data) (concentration 10, unit not given, time-course reading M141): 1.531
Th-T fluorescence of Aβ42 with compound, mean of three wells (Fig. 7a source data) (concentration 10, unit not given, time-course reading M142): 1.539
Th-T fluorescence of Aβ42 with compound, mean of three wells (Fig. 7a source data) (concentration 10, unit not given, time-course reading M143): 1.544
Th-T fluorescence of Aβ42 with compound, mean of three wells (Fig. 7a source data) (concentration 10, unit not given, time-course reading M144): 1.537
Th-T fluorescence of Aβ42 with compound, mean of three wells (Fig. 7a source data) (concentration 10, unit not given, time-course reading M145): 1.534
Th-T fluorescence of Aβ42 with compound, mean of three wells (Fig. 7a source data) (concentration 20, unit not given, time-course reading M129): 1.025
Th-T fluorescence of Aβ42 with compound, mean of three wells (Fig. 7a source data) (concentration 20, unit not given, time-course reading M130): 1.025
Th-T fluorescence of Aβ42 with compound, mean of three wells (Fig. 7a source data) (concentration 20, unit not given, time-course reading M131): 1.024
Th-T fluorescence of Aβ42 with compound, mean of three wells (Fig. 7a source data) (concentration 20, unit not given, time-course reading M132): 1.024
Th-T fluorescence of Aβ42 with compound, mean of three wells (Fig. 7a source data) (concentration 20, unit not given, time-course reading M133): 1.026
Th-T fluorescence of Aβ42 with compound, mean of three wells (Fig. 7a source data) (concentration 20, unit not given, time-course reading M134): 1.029
Th-T fluorescence of Aβ42 with compound, mean of three wells (Fig. 7a source data) (concentration 20, unit not given, time-course reading M135): 1.025
Th-T fluorescence of Aβ42 with compound, mean of three wells (Fig. 7a source data) (concentration 20, unit not given, time-course reading M136): 1.027
Th-T fluorescence of Aβ42 with compound, mean of three wells (Fig. 7a source data) (concentration 20, unit not given, time-course reading M137): 1.027
Th-T fluorescence of Aβ42 with compound, mean of three wells (Fig. 7a source data) (concentration 20, unit not given, time-course reading M138): 1.029
Th-T fluorescence of Aβ42 with compound, mean of three wells (Fig. 7a source data) (concentration 20, unit not given, time-course reading M139): 1.029
Th-T fluorescence of Aβ42 with compound, mean of three wells (Fig. 7a source data) (concentration 20, unit not given, time-course reading M140): 1.019
Th-T fluorescence of Aβ42 with compound, mean of three wells (Fig. 7a source data) (concentration 20, unit not given, time-course reading M141): 1.021
Th-T fluorescence of Aβ42 with compound, mean of three wells (Fig. 7a source data) (concentration 20, unit not given, time-course reading M142): 1.024
Th-T fluorescence of Aβ42 with compound, mean of three wells (Fig. 7a source data) (concentration 20, unit not given, time-course reading M143): 1.022
Th-T fluorescence of Aβ42 with compound, mean of three wells (Fig. 7a source data) (concentration 20, unit not given, time-course reading M144): 1.02
Th-T fluorescence of Aβ42 with compound, mean of three wells (Fig. 7a source data) (concentration 20, unit not given, time-course reading M145): 1.019
Th-T fluorescence of Aβ42 with compound, mean of three wells (Fig. 7a source data) (concentration 50, unit not given, time-course reading M129): 0.475
Th-T fluorescence of Aβ42 with compound, mean of three wells (Fig. 7a source data) (concentration 50, unit not given, time-course reading M130): 0.4748
Th-T fluorescence of Aβ42 with compound, mean of three wells (Fig. 7a source data) (concentration 50, unit not given, time-course reading M131): 0.479
Th-T fluorescence of Aβ42 with compound, mean of three wells (Fig. 7a source data) (concentration 50, unit not given, time-course reading M132): 0.4776
Th-T fluorescence of Aβ42 with compound, mean of three wells (Fig. 7a source data) (concentration 50, unit not given, time-course reading M133): 0.4741
Th-T fluorescence of Aβ42 with compound, mean of three wells (Fig. 7a source data) (concentration 50, unit not given, time-course reading M134): 0.4743
Th-T fluorescence of Aβ42 with compound, mean of three wells (Fig. 7a source data) (concentration 50, unit not given, time-course reading M135): 0.479
Th-T fluorescence of Aβ42 with compound, mean of three wells (Fig. 7a source data) (concentration 50, unit not given, time-course reading M136): 0.4773
Th-T fluorescence of Aβ42 with compound, mean of three wells (Fig. 7a source data) (concentration 50, unit not given, time-course reading M137): 0.4745
Th-T fluorescence of Aβ42 with compound, mean of three wells (Fig. 7a source data) (concentration 50, unit not given, time-course reading M138): 0.4775
Th-T fluorescence of Aβ42 with compound, mean of three wells (Fig. 7a source data) (concentration 50, unit not given, time-course reading M139): 0.4782
Th-T fluorescence of Aβ42 with compound, mean of three wells (Fig. 7a source data) (concentration 50, unit not given, time-course reading M140): 0.4767
Th-T fluorescence of Aβ42 with compound, mean of three wells (Fig. 7a source data) (concentration 50, unit not given, time-course reading M141): 0.4755
Th-T fluorescence of Aβ42 with compound, mean of three wells (Fig. 7a source data) (concentration 50, unit not given, time-course reading M142): 0.4776
